Legend:
Assay type in all cases: cell-based, human
CD45^+CD56^+ cells = experiment: Effect of CHIR-99021 concentration in NK-MED-005 medium on iNK induction; settings: 2.5, 3.5 or 4.5 μM in NK-MED-005c, AP2.0, day 20
Experimental: To determine the optimal concentration of CHIR-99021, different concentrations (2.5 μM, 3.5 μM or 4.5 μM) were added to the NK-MED-005c medium (Table 30) to test their effect on iNK induction. Differentiation proceeded according to Protocol 2 (AP2.0) as described in Example 11. Cells were collected and analyzed using flow cytometry to detect CD45^+CD56^+ cells at differentiation day 20.

CD56^+ cells = experiment: CD45/CD56 expression on day 28 after iPSC-HSPC differentiation optimization
Experimental: For iPSC-HSPC differentiation optimization, CD45/CD56 expression on day 28 was measured (FIG. 10). The HSPC cells on day 6 were further differentiated to iNK in the StemPro-34-based differentiation media Table 12) in the presence of IL7, IL15, SCF. Flt3lFlt3l, (IL3 was added for days 6-14 only). […] However, it was not an optimal condition as the single cells production and expansion was lower than in conditions in the presence of Activin A molecule (data not shown). Due to low CD56^+ cells formation on day 28, the HSPC to iNK differentiation conditions was optimized.

[1] = tested on: blood lineage markers, CD33; experiment: Effect of WNT-C59 in NK-MED-006 medium on iNK induction; settings: 2 μM in NK-MED-006, AP2.0, day 20 cultures
Experimental: The effect of including WNT-C59 (2 μM) in NK-MED-006 medium during iNK induction using the AP2.0 protocol was examined. […] The addition of WNT-C59 increased proportion of cells expressing non-NK lineage markers.

[2] = tested on: iNK cell induction from HSPC; experiment: Design of Experiment (DoE) I and β-mercaptoethanol test, day 6 to day 20; settings: for direction of effect in DoE I: differentiation and cell number at day 20
Experimental: A design of Experiment (DoE) study was performed to determine the concentrations of zinc sulfate, β-mercaptoethanol, human serum, and glucose that would provide the most differentiation and increased number of cells at differentiation day 20. These factors were selected based on known chemical/biological effects of them in affect general cell proliferation and differentiation. Potential positive/negative involvement of β-mercaptoethanol, zinc ion, human serum, and glucose in NK cell or lymphocyte cell proliferation, killer cell receptor function, and cytotoxicity have been previously reported. There were no known studies conducted on testing optimal range of these factors in NK cell induction from HSPC.
To determine the effects of β-mercaptoethanol on differentiation, CD45+ and CD56+ expression was measured in cells cultured in Stempro34 media, DMEM/F12 media with low zinc, low human serum, and no β-mercaptoethanol (bME), or DMEM/F12 media with low zinc, low human serum, and 50 μM β-mercaptoethanol.
A second DoE experiment (DoE II) was subsequently performed to further optimize the concentrations of zinc, β-mercaptoethanol, human serum albumin, and glucose.

CD45^+/CD56^+ cells = experiment: Stage II base media comparison (Stempro34 vs DMEM/F12 and others), Day 21 single cells
Experimental: This Example investigates the use of various alternative base media that can be used for Stage II differentiation. […] The HSPC to iNK differentiation from day 6 further on was done in StemPro-34-based media (Table 12). […] In this Example, the […] until day 6 as described in Example 2 (i.e., steps 1-5). Each media was supplemented with 20 ng/mL IL7, 20 ng/mL IL15, 20 ng/mL SCF, 20 ng/mL Flt3lFlt3l and 5 ng/mL of IL-3 for days 6-14 and 20 ng/mL IL7, 20 ng/mL IL15, 20 ng/mL SCF, 20 ng/mL Flt3lFlt3l for days 14-21 of differentiation.
Day 21 single cells were profiled for CD45^+/CD56^+, CD56^+/NKG2D^+, CD56^+/CD94^+, and CD56^+/CD16^+ expression (FIG. 12). […] The DMEM/F12 2:1 basal media was chosen due to its price and higher availability for scale up production.

Structure (SMILES): Cc1cnc(-c2cnc(NCCNc3ccc(C#N)cn3)nc2-c2ccc(Cl)cc2Cl)[nH]1 [CHIR-99021, 6-[[2-[[4-(2,4-Dichlorophenyl)-5-(5-methyl-1H-imidazol-2-yl)-2-pyrimidinyl]amino]ethyl]amino]-3-pyridinecarbonitrile]
- amount giving the highest proportion of CD45^+CD56^+ cells (CD45^+CD56^+ cells): moderate amount
- single cells production and expansion (CD56^+ cells; CHIR-99021 alone versus conditions with Activin A, data not shown): lower
- CD56^+ percentage, rank among conditions (CD56^+ cells; day 28, StemPro-34-based media, condition #5): highest CD56^+ percentage

Structure (SMILES): Cc1cc(-c2ccc(CC(=O)Nc3ccc(-c4cccnc4)cc3)cc2)ccn1 [WNT-C59]
- proportion of cells expressing non-NK lineage markers [1]: increased
- proportion of iNK that expressed the myeloid progenitor marker CD33 [1]: altered

Structure (SMILES): O=S(=O)([O-])[O-].[Zn+2] [Zinc sulfate]
- direction of effect in DoE I [2]: positive effect

Structure (SMILES): OCCS [β-mercaptoethanol]
- effect on iNK cell induction (CD45+, CD56+ expression) ([2]; 50 μM in DMEM/F12 with low zinc, low human serum): negative effect
- direction of effect in DoE I [2]: negative effect
- CD45^+/CD56^+ cells (CD45^+/CD56^+ cells; StemPro34, bME 55 μM, 1 μM, 0 μM (samples #1, #2, #3), day 21): 60% to 90%
- effect on iNK differentiation (CD45^+/CD56^+ cells; StemPro-based media, day 6 to day 21): prevented iNK differentiation

From patent US20250368959A1, “COMPOSITIONS AND METHODS FOR DIFFERENTIATING STEM CELLS INTO NK CELLS” (CRISPR THERAPEUTICS AG, priority 2022, published 2025)
